Measured values reported in patent publication US9499502B2, “5-substituted iminothiazines and their mono- and dioxides as BACE inhibitors, compositions, and their use” (Merck Sharp & Dohme Corp., priority 2011, dated 2016).

Target: soluble human BACE1 catalytic domain (Homo sapiens (Human), UniProt P56817)
Experiment: BACE1 HTRF FRET Assay
Conditions: BACE1 Ki (nM)

Chain of soluble human BACE1 catalytic domain (P56817 75-416): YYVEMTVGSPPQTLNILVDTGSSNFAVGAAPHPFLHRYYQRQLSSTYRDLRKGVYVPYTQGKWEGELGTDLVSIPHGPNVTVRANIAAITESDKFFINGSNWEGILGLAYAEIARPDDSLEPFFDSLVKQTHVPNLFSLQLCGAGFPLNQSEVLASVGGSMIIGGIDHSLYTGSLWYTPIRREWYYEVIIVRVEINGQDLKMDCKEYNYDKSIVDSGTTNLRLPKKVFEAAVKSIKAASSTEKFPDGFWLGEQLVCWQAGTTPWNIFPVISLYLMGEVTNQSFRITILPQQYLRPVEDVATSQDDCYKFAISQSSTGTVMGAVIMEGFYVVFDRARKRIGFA

Compound	Ki
Cc1nc2cc(CC3(C)C(=N)N[C@](C)(c4cc(F)ccc4F)CS3(=O)=O)ccc2o1 (single isomer, unassigned) [Example 32a-a]	3860 nM
Cc1nc2cc(CC3(C)C(=N)N[C@](C)(c4cc(F)ccc4F)CS3(=O)=O)ccc2o1 (single isomer, unassigned) [Example 32a-b]	4640 nM

Same assay, conditions: BACE1 Ki (nM), Ki calculated from IC50 using the Cheng-Prusoff equation

Compound	Ki
CC1(C)C(=N)N[C@](C)(c2cc(NC(=O)c3ccc(F)cn3)ccc2F)CS1(=O)=O [Example 1]	< 5 nM
CC1(C)C(=N)N[C@](C)(c2cc(NC(=O)c3ncc(F)cc3F)ccc2F)CS1(=O)=O [Example 2]	< 5 nM

Same assay, conditions: read-out: BACE1 Ki; Ki calculated from IC50 using the Cheng-Prusoff equation

Compound	Ki
CC1(C)C(=N)N[C@](C)(c2cc(NC(=O)c3ccc(F)cn3)ccc2F)CS1(=O)=O [Example 1]	1.2 nM
CC1(C)C(=N)N[C@](C)(c2cc(NC(=O)c3ncc(F)cc3F)ccc2F)CS1(=O)=O [Example 2]	0.9 nM

Same assay, conditions: read-out: BACE1 inhibition, % Inh. at 10 μM, at 10 μM

Compound	inhibition at 10 µM
CC1(C)C(=N)N[C@](C)(c2c(F)c(F)cc([N+](=O)[O-])c2F)CS1(=O)=O [Entry 15]	45%
C[C@@]1(c2cc(N)ccc2F)CS(=O)(=O)[C@](C)(CC(F)(F)F)C(=N)N1 [Entry 36]	37%
C=CC[C@]1(C)C(=N)N[C@](C)(c2cc(N)ccc2F)CS1(=O)=O [Entry 44]	38%
C[C@@]1(c2cc(N)ccc2F)CS(=O)(=O)[C@](C)(CC2CC2)C(=N)N1 [Entry 48]	37%
C[C@@]1(c2ccccn2)C(=N)N[C@](C)(c2sc(Br)cc2F)CS1(=O)=O [Entry 86]	44%
CC1(C)C(=N)N[C@](C)(c2cc([N+](=O)[O-])ccc2F)CS1(=O)=O [Example 2-1]	45%

Same assay, conditions: read-out: BACE1 inhibition, Ki

Compound	Ki
CC1(C)C(=N)N[C@](C)(c2cccc(Cl)c2F)CS1(=O)=O [Entry 7]	1400 nM
CC1(C)C(=N)N[C@](C)(c2c(F)cccc2F)CS1(=O)=O [Entry 11]	1300 nM
CC1(C)C(=N)N[C@](C)(c2c(F)ccc(N)c2F)CS1(=O)=O [Entry 13]	3600 nM
CC1(C)C(=N)N[C@](C)(c2c(F)ccc(F)c2F)CS1(=O)=O [Entry 14]	2400 nM
CC(C)[C@@]1(C)C(=N)N[C@](C)(c2cc(N)ccc2F)CS1(=O)=O [Entry 27]	4800 nM
CC(C)[C@]1(C)C(=N)N[C@](C)(c2cc(N)ccc2F)CS1(=O)=O [Entry 28]	7300 nM
C[C@]1(CC(F)(F)F)C(=N)N[C@](C)(c2cc(N)ccc2F)CS1(=O)=O [Entry 35]	3000 nM
C[C@@]1(c2cc(N)ccc2F)CS(=O)(=O)[C@@](C)(C2CCC2)C(=N)N1 [Entry 39]	1700 nM
C[C@]1(CC2CC2)C(=N)N[C@](C)(c2cc(N)ccc2F)CS1(=O)=O [Entry 47]	1800 nM
C[C@@]1(c2cc(N)ccc2F)CS(=O)(=O)[C@@](C)(C2CCOCC2)C(=N)N1 [Entry 50]	500 nM
C[C@]1(CC2CCOCC2)C(=N)N[C@](C)(c2cc(N)ccc2F)CS1(=O)=O [Entry 53]	1300 nM
C[C@@]1(c2cc(N)ccc2F)CS(=O)(=O)[C@@](C)(c2cccc(F)c2)C(=N)N1 [Entry 60]	1100 nM
C[C@@]1(c2cc([N+](=O)[O-])ccc2F)CS(=O)(=O)[C@@](C)(c2cccc(C(F)(F)F)c2)C(=N)N1 [Entry 66]	600 nM
C[C@@]1(c2cc(N)ccc2F)CS(=O)(=O)[C@@](C)(c2cccc(C(F)(F)F)c2)C(=N)N1 [Entry 68]	1400 nM
C[C@@]1(c2cc(N)ccc2F)CS(=O)(=O)[C@@](C)(c2cc(C(F)(F)F)ccn2)C(=N)N1 [Entry 72]	1400 nM
C[C@@]1(c2cc(N)ccc2F)CS(=O)(=O)[C@@](C)(c2cc(C(F)(F)F)ccn2)C(=N)N1 [Entry 73]	4600 nM
C[C@@]1(c2cc(N)ccc2F)CS(=O)(=O)[C@@](C)(c2ccccn2)C(=N)N1 [Entry 76]	6600 nM
C[C@@]1(c2sc(Br)cc2F)CS(=O)(=O)[C@@](C)(c2ccccn2)C(=N)N1 [Entry 85]	1500 nM
C[C@@]1(c2sc(Br)cc2F)CS(=O)(=O)[C@@](C)(c2cccc(F)c2)C(=N)N1 [Entry 87]	600 nM
COCC1(COC)C(=N)N[C@](C)(c2sc(Br)cc2Cl)CS1(=O)=O [Entry 89]	1900 nM
CC1(C)C(=N)N[C@](C)(c2cc(N)cc(Cl)c2F)CS1(=O)=O [Example 2A-7]	3100 nM
CC1(C)C(=N)N[C@](C)(c2nc(N)ccc2F)CS1(=O)=O [Example 2F-3]	6200 nM
